In the series the test system is artificial myocardial structure (cardiac organoid). The series can be described thus: Contractile force-based cardiac toxicity assessment of drug-treated artificial myocardial structure. The settings on record: FIG. 15. In kind it is cell-based. The source says:
Furthermore, after additionally treating an artificial myocardial structure prepared by coculturing gelatin oil capsules and cardiomyocytes with various drugs, contractile forces of the drug-treated artificial myocardial structure were checked.

Consider `CC(C)NCC(O)c1ccc(O)c(O)c1` (stereo not drawn) [Isopreterenol], for which, under “10 nM”, the beat rates result was “accelerated” and the contractile forces result was “changed strongly”. For `COc1ccc(CCN(C)CCCC(C#N)(c2ccc(OC)c(OC)c2)C(C)C)cc1OC` (stereo not drawn) [verapamil], where the note is “125 nM”, the beat rates result was “slow down and become somewhat irregular”.

For the origin of these results see US20210395676A1, “CARRIER FOR CELL CULTURE COMPRISING MICROCAPSULES CONTAINING NATURAL OIL” (Korea Research Institute of Chemical Technology, priority 2018, published 2021).
